Assay results: US20190239509A1, “METHOD OF CONTROLLING PLANTS” (SYNGENTA PARTICIPATIONS AG, priority 2016, published 2019)

How the values were obtained:
Type in all cases: in vivo
[1] = system: ABUTH (Abutilon theophrasti); test: B1 glasshouse post-emergence herbicidal activity, ABUTH; settings: after 14 days, 100=total damage, 0=no damage
Method: (§1) Seeds of a variety of test species HORVW (Hordeum vulgare—barley), ABUTH (Abutilon theophrasti), AMARE (Amaranthus retroflexus) and ECHCG (Echinochloa crus-galli) were sown in standard soil in pots. After cultivation for 10 days cultivation under controlled conditions in a glasshouse (at 24/16° C., day/night; 14 hours light; 65% humidity), the plants were sprayed with an aqueous spray solution derived from the formulation of the technical active ingredient in 0.6 ml acetone and 45 ml formulation solution containing 10.6% Emulsogen EL (Registry number 61791-12-6), 42.2% N-methyl pyrrolidone, 42.2% dipropylene glycol monomethyl ether (CAS RN 34590-94-8) and 0.2% X-77 (CAS RN 11097-66-8).
(§2) The test plants were then grown in a glasshouse under controlled conditions in a glasshouse (at 24/16° C., day/night; 14 hours light; 65% humidity) and watered twice daily. After 14 days, the test was evaluated (100=total damage to plant; 0=no damage to plant).

[2] = system: AMARE (Amaranthus retroflexus); test: B1 glasshouse post-emergence herbicidal activity, AMARE; settings: after 14 days, 100=total damage, 0=no damage
Method: as §1, §2

[3] = system: ECHCG (Echinochloa crus-galli); test: B1 glasshouse post-emergence herbicidal activity, ECHCG; settings: after 14 days, 100=total damage, 0=no damage
Method: as §1, §2

[4] = system: HORVW (Hordeum vulgare—barley); test: B1 glasshouse post-emergence herbicidal activity, barley; settings: after 14 days, 100=total damage, 0=no damage
Method: as §1, §2

[5] = system: Brachiaria plantaginea (BRAPL); test: B2 drilled field trial Brazil, post-emergence, BRAPL; settings: 100 g ai/ha, 100=total damage, 0=no damage
Method: (§3) Seeds of a variety of test species were used in drilled field trials to look at the control of important weed species present in corn crops as well as the effect on soybean (a volunteer crop in corn). Trials were carried out in Brazil in the summer season.
(§4) Plot size was 10-12 m^2, and two replicates were carried out per treatment. Plants were treated post-emergence at the 4 leaf stage. Fungicides and insecticides were used as necessary for plant health. The test was evaluated at 7 and 30 days after application (Amaranthus viridis (AMAVI), Bidens pilosa (BIDPI), Euphorbia heterophylla (EPPHL)) and 9 and 37 days after application (Brachiaria plantaginea (BRAPL) and soybean (Glycine max GLXMA) with 100=total damage to plant and 0=no damage to plant.
(§5) Expected results were calculated using the Colby Formula.

[6] = system: Bidens pilosa (BIDPI); test: B2 drilled field trial Brazil, post-emergence, BIDPI; settings: 100 g ai/ha, 100=total damage, 0=no damage
Method: as §3, §4, §5

[7] = system: soybean (Glycine max GLXMA); test: B2 drilled field trial Brazil, post-emergence, soybean; settings: 100 g ai/ha, 100=total damage, 0=no damage
Method: as §3, §4, §5

[8] = system: Amaranthus viridis (AMAVI); test: B2 drilled field trial Brazil, post-emergence, AMAVI; settings: 100 g ai/ha, 100=total damage, 0=no damage
Method: as §3, §4, §5

[9] = system: Euphorbia heterophylla (EPPHL); test: B2 drilled field trial Brazil, post-emergence, EPPHL; settings: 100 g ai/ha, 100=total damage, 0=no damage
Method: as §3, §4, §5

Compound	ABUTH ([1]; Rate 125 g/ha)	ABUTH ([1]; Rate 250 g/ha)	AMARE ([2]; Rate 125 g/ha)	AMARE ([2]; Rate 250 g/ha)	ECHCG ([3]; Rate 125 g/ha)	ECHCG ([3]; Rate 250 g/ha)	HORVW ([4]; Rate 125 g/ha)	HORVW ([4]; Rate 250 g/ha)	BRAPL 9DAA Observed ([5]; 9 days after application)	BRAPL 37 DAA Observed ([5]; 37 days after application)	BIDPI 7DAA Observed ([6]; 7 days after application)	BIDPI 30 DAA Observed ([6]; 30 days after application)	GLXMA 9DAA Observed ([7]; 9 days after application)	GLXMA 37 DAA Observed ([7]; 37 days after application)	AMAVI 7DAA Observed ([8]; 7 days after application)	AMAVI 30 DAA Observed ([8]; 30 days after application)	EPPHL 7DAA Observed ([9]; 7 days after application)	EPPHL 30 DAA Observed ([9]; 30 days after application)
COc1ccc(-n2nc(C)cc(C(=O)C3C(=O)CC(C)CC3=O)c2=O)cc1OC (stereo not drawn) [Compound 2.2]	100	100	100	100	100	100	0	0										
COc1ccc(-n2nc(C)cc(C(=O)C3C(=O)CCCC3=O)c2=O)cc1OC [Compound 2.3, 2-[2-(3,4-Dimethoxyphenyl)-6-methyl-3-oxo-pyridazine-4-carbonyl]cyclohexane-1,3-dione]	100	100	100	100	100	100	0	0	78	37	45	43	55	100	65	70	58	42
COc1ccc(-n2nc(C)cc(C(=O)C3C(=O)C(C)(C)C(=O)C(C)(C)C3=O)c2=O)cc1OC [Compound 2.5]	100	100	100	100	90	90	0	0										
COc1ccc(-n2nc(C)cc(C(=O)C3C(=O)CC(C)(C)CC3=O)c2=O)cc1OC [Compound 2.4]	100	100	100	100	100	100	0	10										
COc1ccc(-n2nc(C)cc(C(=O)C3C(=O)C4CCC(C4)C3=O)c2=O)cc1OC (stereo not drawn) [Compound 2.1, 3-[2-(3,4-dimethoxyphenyl)-6-methyl-3-oxo-pyridazine-4-carbonyl]bicyclo[3.2.1]octane-2,4-dione]	100	100	100	100	100	100	0	0										
COc1ccc(-n2nc(C3CC3)cc(C(=O)C3C(=O)C4CCC(C4)C3=O)c2=O)cc1OC (stereo not drawn) [Compound 2.9]	100	100	90	100	100	100	0	10										
COc1ccc(-n2nc(C3CC3)cc(C(=O)C3C(=O)C(C)(C)C(=O)C(C)(C)C3=O)c2=O)cc1OC [Compound 2.11, 6-[6-cyclopropyl-2-(3,4-dimethoxyphenyl)-3-oxo-pyridazine-4-carbonyl]-2,2,4,4-tetramethyl-cyclohexane-1,3,5-trione]	100	100	100	100	100	100	0	0										
